Here are results for 79 compounds from the METLIN SMRT retention time set (Domingo-Almenara et al. 2019).

The nature of the data set: gradient 5% acetonitrile 3 min, to 50% in 2 min, to 85% in 15 min, held 3 min, 100 µL/min. Particulars: column: Zorbax Extend-C18 2.1 x 50 mm; eluents: water / acetonitrile, 0.1% formic acid. Summed up: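 Pure standards were run in mixtures of ~100 molecules by HPLC coupled to a quadrupole time-of-flight mass spectrometer. The column was a Zorbax Extend-C18 (2.1 × 50 mm, 1.8 μm) at 100 μL/min, with water and acetonitrile each containing 0.1% formic acid, in positive and negative ionization mode. Dead and dwell volumes were 40 μL and 900 μL. Retention time was taken from computationally picked adduct peaks, each manually inspected, with data collected over 3 months.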
`COc1ccc(NC(=O)c2nnc(CSCC(=O)NCCc3c[nH]c4ccccc34)s2)cc1` came in with an RP-LC retention time of 859 s. As to `Cn1cccc1C(=O)N1CCc2nn(CC#N)c(=O)n2CC1`, the RP-LC retention time is 622 s. In turn, `COc1cccc(CC(=O)N2CCc3nc(-c4ccc(Cl)cc4)ncc3C2)c1` showed an RP-LC retention time of 1050 s. On to `O=C(c1ccccn1)N1CC(c2nc(-c3ccccc3)no2)C2(CCOCC2)C1` (centres undefined), for which the RP-LC retention time came out at 743 s. `Cc1nc(C)c(C(=O)Nc2ccc(F)cc2F)s1`: the RP-LC retention time is 755 s. In turn, `CCOC(=O)c1cccc(Nc2c(C(=O)N3CCCCC3CC)cnc3nc(C)ccc23)c1` (centres undefined) returned an RP-LC retention time of 704 s.

Compound `CCn1c(=O)c2cc(C(=O)NCc3ccc(N4CCC(C)CC4)cc3)nn2c2ccccc21` registered an RP-LC retention time of 688 s. `CCN(CC)C(=O)Cn1cc(C(=O)C(=O)N2CCc3ccccc3C2)c2ccccc21`: the RP-LC retention time was determined as 644 s. `O=C(Nc1ccccc1Cl)C1CN(S(=O)(=O)C2CC2)CC12CCCCC2` (centres undefined) came in with an RP-LC retention time of 1020 s. The compound `O=S(=O)(Cc1ccccc1)N1CCC(c2noc(-c3ccncc3)n2)C1` (centres undefined) showed an RP-LC retention time of 812 s. For `CN(C)c1cnc(-n2cc(NC(=O)c3ccc(C#N)cc3)cn2)nc1`, the RP-LC retention time was 716 s.

Consider `Cc1oc(-c2[nH]ncc2C(=O)N2CCOCC2)cc1S(=O)(=O)N1CCC(C)CC1`, for which the RP-LC retention time was determined as 703 s. The compound `Cc1ccccc1OCC(=O)NC[C@@]12CCC[C@H]1N(C)C(=O)CC2` yielded an RP-LC retention time of 755 s. Compound `O=C(NCc1ccccc1F)C1CCCN(c2nccnc2Sc2ccccc2)C1` (centres undefined) had an RP-LC retention time of 1050 s.

The compound `Cc1ccc2c(c1)N(S(C)(=O)=O)CCC(C(=O)Nc1ccccc1F)O2` (centres undefined) displayed an RP-LC retention time of 918 s. Turning to `CCOC(=O)Nc1ccc(C(=O)/C=C/c2ccccc2)cc1`, the RP-LC retention time was 1000 s.

On to `COc1ccc(-c2c(C)noc2NC(C)=O)cc1S(=O)(=O)NCCC1=CCCCC1`, for which the RP-LC retention time was found to be 886 s. Consider `CCOC(=O)c1c(S(=O)(=O)N2CCC(C(=O)NC3CC3)CC2)c(C)n(C)c1C`, for which the RP-LC retention time came out at 672 s.

The compound `O=C(c1sc2ccccc2c1Cl)N1CCN(c2ccccn2)CC1` returned an RP-LC retention time of 678 s. `CC(C)CC(NC(=O)[C@H]1CCCN1C(=O)OCc1ccccc1)C(=O)NCC(=O)NO` (some centres undefined) yielded an RP-LC retention time of 648 s. Compound `CCN1C(=O)c2cccnc2Sc2cc(C(=O)NCc3ccccc3)ccc21` came in with an RP-LC retention time of 780 s.

Take `CCN1C(=O)c2cccnc2Sc2cc(NC(=O)COc3ccc(Cl)cc3)ccc21`: the RP-LC retention time came out at 927 s.

`Cc1ccc(CNC(=O)Cn2c(=O)c(S(=O)(=O)c3ccccc3)cc3ccccc32)cc1` came in with an RP-LC retention time of 900 s.

On to `O=C(Cn1ccc2ccn(Cc3cccnc3)c2c1=O)NC1CCCC1`, for which the RP-LC retention time came out at 605 s. Regarding `O=C(NCc1ccccc1)C1=Cc2ccccc2OC=C1`, the RP-LC retention time was 933 s. In the case of `Cc1ccc(-c2nnc(N3CCC(C(=O)N4CCC5(CC4)OCCO5)CC3)o2)cc1`, the RP-LC retention time was found to be 755 s. `CSc1ccc(CCNC(=O)Cn2nc(-n3cccc3)c3c(C)cc(C)nc32)cc1` showed an RP-LC retention time of 1050 s. `Cc1cccc(OCC(=O)NC2CCN(Cc3c(C)noc3C)CC2)c1` had an RP-LC retention time of 622 s. With `CCN(CC)C(=O)Cn1c(C2CC(=O)N(C3CCCC3)C2)nc2ccccc21` (centres undefined) the figure was 657 s; with `Cc1nc2c(c(=O)n1CC(=O)NC1CCCC1)CCN(Cc1ccccc1)C2`, 602 s; with `O=C(Cn1nc2nc(N3CCCC3)ccn2c1=O)NCc1ccc(F)cc1Cl`, 688 s. With `COc1cc(Cl)c(CC2C(=O)Nc3ccccc32)cc1OC` (centres undefined) the figure was 900 s. In the case of `Cc1cc(C(=O)Nc2ccc(S(C)(=O)=O)cc2)on1`, the RP-LC retention time was determined as 625 s. Turning to `O=C(NCCn1ncccc1=O)Nc1ccccc1C(F)(F)F`, the RP-LC retention time was 642 s. The compound `COC(=O)c1ccccc1NC(=O)N1CCOc2ccc(C)cc21` came in with an RP-LC retention time of 1140 s. With `COc1cc(OC)cc(-c2nnc(Cc3nc(-c4ccccc4F)no3)o2)c1` the figure was 907 s; with `O=C(Cc1cccs1)Nc1ccc(N2CCN(C3CCCCC3)C2=O)nc1`, 804 s. With `CC(C)OCCCNC(=O)CN1c2ccc(F)cc2-c2ccccc2S1(=O)=O` the figure was 890 s; with `CCCC(=O)N1CCc2c(c(-c3nnc(SC)n3CC)nn2C)C1`, 705 s; with `Cc1ccccc1NC(=O)C1CCN(S(=O)(=O)c2c(C)[nH]c(C)c2C(=O)N2CCCC2)CC1`, 675 s. For the compound `CC(=O)Oc1cc(-c2cccc(C(F)(F)F)c2)c2oc(=O)sc2c1`, the RP-LC retention time worked out at 1030 s. `Cc1ccc(-n2c(N3CCCC(C(=O)NCC(C)c4ccccc4)C3)nc3ccsc3c2=O)cc1` (centres undefined) came in with an RP-LC retention time of 961 s.

Compound `N#Cc1cccc(NC(=O)C2CCCN(S(=O)(=O)c3cc(-c4noc(C5CCC5)n4)cs3)C2)c1` (centres undefined) yielded an RP-LC retention time of 1120 s. For `O=C(CN1C(=O)NC(c2ccccc2Cl)C2=C1COC2=O)Nc1ccc(F)c(Cl)c1` (centres undefined), the RP-LC retention time was 837 s. Turning to `COCCNC(=O)c1c2c(cn(-c3ccc(Cl)cc3)c1=O)C(=O)CC(C)(C)C2`, the RP-LC retention time was 856 s. Compound `Cc1ccc(NCCN(C)C)c2c(=O)c3cc(O)ccc3sc12` yielded an RP-LC retention time of 736 s. With `Cc1ccc(N2CCC(NC(=O)c3ccc4nc[nH]c4c3)C2=O)cc1` (centres undefined) the figure was 607 s; with `Cc1noc(-c2ccc(OC3CN(C(=O)NC(C)C)C3)cc2)n1`, 730 s; with `CCc1ccccc1NC(=O)Cn1c(NCCCc2ccccc2)nc(C)cc1=O`, 857 s. In turn, `Cc1ccc(S(=O)(=O)N2CC3CN(C(=O)C4COc5ccccc5O4)CC(C2)O3)cc1` (centres undefined) gave an RP-LC retention time of 928 s. The same measure for `CCc1ccc(CN2C(=O)c3ccccc3C2C(=O)NCC2CCCO2)cc1` (centres undefined): 830 s; for `Cc1ccc(-c2csc(Nc3ccccn3)n2)cc1`: 918 s; for `O=C(NCC1CCCO1)N1CCCn2nc(-c3cccs3)cc2C1` (centres undefined): 663 s. For `O=C(NCc1ccco1)c1nn(-c2ccc(F)cc2)c2ccccc2c1=O`, the RP-LC retention time is 872 s. For the compound `Cn1nc(-c2nnc(-c3ccccc3)o2)c2c1CCN(S(=O)(=O)c1ccccc1Cl)C2`, the RP-LC retention time was 938 s. In the case of `Cc1cc(C)cc(NC(=O)Cn2ccc3ccn(C)c3c2=O)c1`, the RP-LC retention time came out at 829 s. `Nc1ccccc1C(=O)Nc1ccc(Cl)cc1Cl`: the RP-LC retention time came to 1080 s. As for `O=c1c2cc(-c3ccccc3)nn2ccn1Cc1noc(CN2CCCCCCC2)n1`, the RP-LC retention time stood at 705 s. For `c1ccc(-c2nc(CSc3ccc(-n4ccnc4)nn3)cs2)cc1`, the RP-LC retention time was 636 s.

`CCN1C(=O)c2cccnc2Sc2cc(CNC(=O)c3ccco3)ccc21` came in with an RP-LC retention time of 701 s. The compound `Cc1ccc(SCC(=O)Nc2nc(-c3ccccc3)cs2)cc1` yielded an RP-LC retention time of 1100 s.

Take `CCC(NC(=O)C1CCN(c2nnc(-c3ccc(OC)cc3)o2)CC1)c1cccs1` (centres undefined): the RP-LC retention time is 863 s. Regarding `CCOCCCNC(=O)C1CCN(C2=NS(=O)(=O)C(c3ccc(Cl)cc3)=C2C)CC1`, the RP-LC retention time was 780 s.

In turn, `CC(C)n1cnc2cc(CNC(=O)c3cccs3)ccc21` came in with an RP-LC retention time of 608 s.

As to `O=C(C1CC1)N1CCN(c2ccc(=O)n(-c3cccc(Cl)c3)n2)CC1`, the RP-LC retention time worked out at 738 s.

With `COc1ccc(S(=O)(=O)CCC(=O)NC(C(=O)N2CCCc3ccccc32)c2ccccc2)cc1` (centres undefined), the RP-LC retention time was 928 s.

Consider `COc1ccc(NC(=O)Nc2ccc3nc(C)n(-c4ccccc4)c(=O)c3c2)cc1OC`, for which the RP-LC retention time is 679 s. `Cc1c(NC(=O)c2cccc3c2-c2ccccc2C3=O)c(=O)n(-c2ccccc2)n1C`: the RP-LC retention time was 658 s. With `COc1cc(NC(=O)C2CCCN(c3ncnc4c3nc3n4CCCCC3)C2)cc(OC)c1OC` (centres undefined) the figure was 720 s; with `CCOC(=O)C1=C(CN2CCc3ccccc3C2)NC(=O)NC1c1cccs1` (centres undefined), 655 s; with `COc1ccc(-c2ncc3c(n2)CCN(S(=O)(=O)c2ccc(F)c(Cl)c2)C3)cc1`, 1130 s. As for `CC(C)C(NC(=O)Nc1ccc(F)cc1)C(=O)N1CCc2ccccc21` (centres undefined), the RP-LC retention time was determined as 960 s. Regarding `COc1ccccc1C(=O)Nc1ccc2nc(N3CCN(C4CCCCC4)CC3)cc(C(=O)O)c2c1`, the RP-LC retention time was determined as 638 s.

`CC(=O)Nc1ccc(C(=O)N2CCC3(CC2)N=C(c2ccccc2)NO3)cc1` displayed an RP-LC retention time of 664 s. In the case of `O=C(Nc1ccc2c(c1)OCCO2)C1CC(=O)N(CCc2c[nH]c3ccc(F)cc23)C1` (centres undefined), the RP-LC retention time worked out at 764 s. Take `CCCn1c(CCNC(=O)c2c(F)cccc2F)nc2cccnc21`: the RP-LC retention time is 694 s. `Cc1onc(-c2ccccc2Cl)c1C(=O)NC1CC(=O)N(C2CC2)C1` (centres undefined) had an RP-LC retention time of 636 s. As to `CCC(C(=O)Nc1ccc(OC)c(OC)c1)n1cnc2nc3c(cc2c1=O)CCCC3` (centres undefined), the RP-LC retention time came out at 720 s. For `O=C(c1cc(Cl)ccc1Cl)N1CCN(c2cc(-c3cccs3)[nH]n2)CC1`, the RP-LC retention time is 870 s.
